# Laboratory results published in ChEMBL document CHEMBL1201862, “PubChem BioAssay data set” (2004).
# The source made the active and inactive calls.
# What was measured:
# [1] = target: T1, Short transient receptor potential channel 4 (Mus musculus, UniProt Q9QUQ5); test: calcium entry via TRPC4 opening agents – cell-based, HEK293 TRPC4/mu-opioid, Fluo-4 calcium, dose response (AID 434937); assay type: functional
# T1 sequence (Q9QUQ5 whole entry): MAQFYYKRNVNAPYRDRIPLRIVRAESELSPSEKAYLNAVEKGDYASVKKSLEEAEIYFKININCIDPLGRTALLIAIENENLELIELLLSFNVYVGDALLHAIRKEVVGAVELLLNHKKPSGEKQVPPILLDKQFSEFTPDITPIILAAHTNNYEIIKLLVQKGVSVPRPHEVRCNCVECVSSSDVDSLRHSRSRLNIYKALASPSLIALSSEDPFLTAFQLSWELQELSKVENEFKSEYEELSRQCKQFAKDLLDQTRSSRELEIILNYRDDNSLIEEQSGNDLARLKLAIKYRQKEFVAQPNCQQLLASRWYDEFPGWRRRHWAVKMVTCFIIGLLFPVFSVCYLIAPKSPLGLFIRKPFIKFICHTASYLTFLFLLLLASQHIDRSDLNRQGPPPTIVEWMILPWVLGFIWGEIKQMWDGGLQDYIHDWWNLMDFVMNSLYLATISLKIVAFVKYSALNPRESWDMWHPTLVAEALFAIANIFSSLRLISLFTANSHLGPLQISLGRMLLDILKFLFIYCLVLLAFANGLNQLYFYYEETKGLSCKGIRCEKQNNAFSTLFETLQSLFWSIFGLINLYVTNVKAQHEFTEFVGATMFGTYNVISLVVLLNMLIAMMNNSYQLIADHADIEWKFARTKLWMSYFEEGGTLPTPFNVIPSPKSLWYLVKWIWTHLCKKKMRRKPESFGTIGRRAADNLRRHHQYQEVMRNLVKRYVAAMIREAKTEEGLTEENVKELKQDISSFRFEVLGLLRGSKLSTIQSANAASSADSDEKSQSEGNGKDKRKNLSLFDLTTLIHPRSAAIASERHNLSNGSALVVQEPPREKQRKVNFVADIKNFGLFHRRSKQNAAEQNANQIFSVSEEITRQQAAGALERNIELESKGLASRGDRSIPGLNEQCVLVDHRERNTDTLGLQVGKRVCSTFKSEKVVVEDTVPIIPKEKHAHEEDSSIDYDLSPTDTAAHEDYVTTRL
# Coagulation factor XII = target: T2, Coagulation factor XII (Homo sapiens, UniProt P00748); assay type: functional;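 further: activated factor XIIa alpha cleaving a fluorogenic AMC peptide substrate; inhibitor potency from loss of enzyme activity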
# T2 sequence (P00748 whole entry): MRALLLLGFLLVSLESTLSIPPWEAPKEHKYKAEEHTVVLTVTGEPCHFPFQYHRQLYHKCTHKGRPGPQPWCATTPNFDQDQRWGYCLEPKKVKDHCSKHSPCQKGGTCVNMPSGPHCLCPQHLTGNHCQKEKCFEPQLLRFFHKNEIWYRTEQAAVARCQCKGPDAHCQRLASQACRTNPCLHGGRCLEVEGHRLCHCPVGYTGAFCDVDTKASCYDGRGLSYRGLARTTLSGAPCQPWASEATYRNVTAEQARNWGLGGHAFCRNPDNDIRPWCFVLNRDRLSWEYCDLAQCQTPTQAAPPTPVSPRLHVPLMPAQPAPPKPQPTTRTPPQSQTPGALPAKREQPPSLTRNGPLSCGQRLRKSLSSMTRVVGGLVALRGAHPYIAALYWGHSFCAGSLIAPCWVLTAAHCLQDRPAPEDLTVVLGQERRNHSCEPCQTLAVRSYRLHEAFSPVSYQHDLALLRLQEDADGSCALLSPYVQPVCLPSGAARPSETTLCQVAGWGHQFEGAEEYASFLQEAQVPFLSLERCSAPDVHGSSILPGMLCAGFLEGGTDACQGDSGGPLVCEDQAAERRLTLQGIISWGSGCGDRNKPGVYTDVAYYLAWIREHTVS
# [2] = target: T3, Kappa-type opioid receptor (Homo sapiens, UniProt P41145); test: SAR analysis of small molecule antagonists of the kappa opioid receptor via a luminescent beta-arrestin assay - Set 4. [Related pubchem assays (depositor defined):AID1777, AID1778, AID1785, AID1786, AID1966, AID2133, AID2136, AID2285]; assay type: functional
# [3] = target: T3, Kappa-type opioid receptor; test: SAR analysis of small molecule antagonists of the kappa opioid receptor via a luminescent beta-arrestin assay - Set 5. [Related pubchem assays (depositor defined):AID1778, AID1785]; assay type: functional
# [4] = target: T4, G-protein coupled receptor 35 (Homo sapiens, UniProt Q9HC97); test: SAR analysis of Agonists of the GPR35 Receptor using an Image-Based Assay - Set 4. [Related pubchem assays (depositor defined):AID2013, AID2026]; assay type: functional
# Cannabinoid receptor 1 [5] = target: T5, Cannabinoid receptor 1 (Homo sapiens, UniProt P21554); test: SAR analysis of agonists of the Cannabinoid Receptor 1 using an Image-Based Assay - Set 4. [Related pubchem assays (depositor defined):AID2013, AID2026]; assay type: functional
# [6] = target: T4, G-protein coupled receptor 35; test: SAR analysis of Antagonists of the GPR35 Receptor using an Image-Based Assay - Set 6. [Related pubchem assays (depositor defined):AID2013, AID2026]; assay type: functional
# Cannabinoid receptor 1 [7] = target: T5, Cannabinoid receptor 1; test: SAR analysis of antagonists of the Cannabinoid Receptor 1 using an Image-Based Assay - Set 4. [Related pubchem assays (depositor defined):AID2013, AID2026]; assay type: functional
# [8] = target: G-protein coupled receptor 55 (Homo sapiens, UniProt Q9Y2T6); test: SAR Analysis of Selective Antagonists of GPR55 using an Image-Based Assay - Set 4. [Related pubchem assays (depositor defined):AID2013, AID2026]; assay type: functional;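 further: antagonism of response to 5 µM lysophosphatidylinositol agonist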
# Cannabinoid receptor 2 [9] = target: T6, Cannabinoid receptor 2 (Homo sapiens, UniProt P34972); test: SAR analysis of antagonists of the Cannabinoid Receptor 2 using an Image-Based Assay - Set 3. [Related pubchem assays (depositor defined):AID2013, AID2026]; assay type: functional
# Cannabinoid receptor 2 [10] = target: T6, Cannabinoid receptor 2; test: SAR analysis of agonists of the Cannabinoid Receptor 2 using an Image-Based Assay - Set 3. [Related pubchem assays (depositor defined):AID2013, AID2026]; assay type: functional
# Aminopeptidase N = target: T7, Aminopeptidase N (Plasmodium falciparum FcB1/Columbia, UniProt O96935); test: malaria alanyl aminopeptidase activity blockers – biochemical, fluorogenic H-Leu-NHMec substrate, 1536-well (AID 1445); parameters: species or system Plasmodium falciparum 3D7, 3D7
# T7 sequence (O96935 whole entry): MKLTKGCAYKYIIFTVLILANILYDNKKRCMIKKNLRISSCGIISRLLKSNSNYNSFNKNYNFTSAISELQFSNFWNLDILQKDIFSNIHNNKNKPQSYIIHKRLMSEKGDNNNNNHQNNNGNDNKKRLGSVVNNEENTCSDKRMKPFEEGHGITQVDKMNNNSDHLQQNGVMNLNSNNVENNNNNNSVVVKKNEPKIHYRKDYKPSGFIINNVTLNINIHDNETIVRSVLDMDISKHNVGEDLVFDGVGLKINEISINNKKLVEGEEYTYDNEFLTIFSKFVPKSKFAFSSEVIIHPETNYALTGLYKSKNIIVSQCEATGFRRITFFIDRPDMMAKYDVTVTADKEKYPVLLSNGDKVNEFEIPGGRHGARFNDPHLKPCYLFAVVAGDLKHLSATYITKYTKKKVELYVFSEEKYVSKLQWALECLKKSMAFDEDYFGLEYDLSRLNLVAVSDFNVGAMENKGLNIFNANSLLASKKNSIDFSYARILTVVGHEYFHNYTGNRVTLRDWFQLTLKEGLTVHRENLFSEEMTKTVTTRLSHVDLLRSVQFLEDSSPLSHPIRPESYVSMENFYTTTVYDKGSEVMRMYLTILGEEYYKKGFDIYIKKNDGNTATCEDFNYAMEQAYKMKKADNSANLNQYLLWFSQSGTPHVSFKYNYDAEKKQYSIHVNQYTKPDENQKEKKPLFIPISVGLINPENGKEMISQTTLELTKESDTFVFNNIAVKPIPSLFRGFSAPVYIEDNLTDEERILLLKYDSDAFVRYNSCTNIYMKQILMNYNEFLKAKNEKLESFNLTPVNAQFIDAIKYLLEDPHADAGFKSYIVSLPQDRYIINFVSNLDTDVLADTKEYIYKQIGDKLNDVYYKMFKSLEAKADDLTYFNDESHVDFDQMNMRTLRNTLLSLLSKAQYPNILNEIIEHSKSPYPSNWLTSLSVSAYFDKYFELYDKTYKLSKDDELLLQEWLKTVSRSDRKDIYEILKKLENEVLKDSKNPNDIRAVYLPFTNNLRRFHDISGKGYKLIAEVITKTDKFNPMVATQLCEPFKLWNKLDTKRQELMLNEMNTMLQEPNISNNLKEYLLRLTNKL
# [11] = Counterscreen for IDE inhibitors: Luminescence-based cell-based high throughput dose response assay to identify compounds that are cytotoxic to HEK cells. [Related pubchem assays: 434962 (Primary screen (IDE inhibitors in singlicate)), 449730 (Counterscreen (Cytotoxicity in triplicate)), 435028 (Confirmation (IDE inhibitors in triplicate)) …; assay type: functional; conditions: HEK293
# Ion channel NompC = Ion channel NompC (Danio rerio, UniProt Q7T1G6); test: Dose response cell-based high-throughput screening assay for agonists of the transient receptor potential channel N1 (TRPN1). [Related pubchem assays (depositor defined):AID1424, AID1448]; assay type: functional
# Mucolipin-3 = Mucolipin-3 (Homo sapiens, UniProt Q8TDD5); test: Fluorescence counterscreen assay for […] agonists: dose response cell-based high-throughput screening assay to identify agonists of the transient receptor potential channel ML3 (TRPML3). [Related pubchem assays: 1424, 1448 ]; assay type: functional
# Insulin-degrading enzyme = target: T8, Insulin-degrading enzyme (Homo sapiens, UniProt P14735); test: Dose Response: Fluorescence polarization-based cell-based high throughput dose response assay for inhibitors of insulin-degrading enzyme (IDE). [Related pubchem assays: 434962 (Primary screen (IDE inhibitors in singlicate)), 449730 (Counterscreen (Cytotoxicity in triplicate)), 435028 (Confirmation (IDE inhibitors in triplicate)), 434984 (Summary …; assay type: functional
# T8 sequence (P14735 whole entry): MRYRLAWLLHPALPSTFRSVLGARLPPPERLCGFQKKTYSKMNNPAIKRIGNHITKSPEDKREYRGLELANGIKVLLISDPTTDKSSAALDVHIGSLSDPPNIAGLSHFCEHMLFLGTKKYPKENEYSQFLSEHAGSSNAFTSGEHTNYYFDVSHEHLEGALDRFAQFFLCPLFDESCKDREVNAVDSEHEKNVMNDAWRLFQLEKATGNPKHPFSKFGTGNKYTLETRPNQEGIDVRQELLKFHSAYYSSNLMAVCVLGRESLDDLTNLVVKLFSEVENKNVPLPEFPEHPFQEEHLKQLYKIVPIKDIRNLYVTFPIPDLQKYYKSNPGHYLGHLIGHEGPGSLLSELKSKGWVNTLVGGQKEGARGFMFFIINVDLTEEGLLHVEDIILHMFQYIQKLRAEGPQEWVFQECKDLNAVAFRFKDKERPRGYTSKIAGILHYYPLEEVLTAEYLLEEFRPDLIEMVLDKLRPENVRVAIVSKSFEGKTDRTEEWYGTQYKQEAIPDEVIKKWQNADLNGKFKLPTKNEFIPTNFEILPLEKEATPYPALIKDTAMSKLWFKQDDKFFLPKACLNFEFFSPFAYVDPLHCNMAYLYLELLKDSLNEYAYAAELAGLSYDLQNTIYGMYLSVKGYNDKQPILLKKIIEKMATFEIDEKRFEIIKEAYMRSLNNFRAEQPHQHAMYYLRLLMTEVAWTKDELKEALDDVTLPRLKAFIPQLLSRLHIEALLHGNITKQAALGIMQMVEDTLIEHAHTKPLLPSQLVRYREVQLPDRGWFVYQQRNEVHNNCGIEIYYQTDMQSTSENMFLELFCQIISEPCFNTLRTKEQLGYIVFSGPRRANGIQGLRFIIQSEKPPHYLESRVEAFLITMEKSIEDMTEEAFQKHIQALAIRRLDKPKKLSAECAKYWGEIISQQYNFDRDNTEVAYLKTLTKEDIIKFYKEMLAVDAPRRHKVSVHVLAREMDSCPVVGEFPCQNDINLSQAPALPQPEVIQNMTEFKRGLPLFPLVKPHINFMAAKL
# [12] = target: Dual specificity tyrosine-phosphorylation-regulated kinase 1A (Rattus norvegicus, UniProt Q63470); assay type: biochemical, Homo sapiens
# [13] = target: Intestinal-type alkaline phosphatase (Homo sapiens, UniProt P09923); test: human intestinal alkaline phosphatase activators, dose response, biochemical, luminescence, uHTS hits (AID 463120); assay type: functional
# Sequence of Intestinal-type alkaline phosphatase (P09923 whole entry): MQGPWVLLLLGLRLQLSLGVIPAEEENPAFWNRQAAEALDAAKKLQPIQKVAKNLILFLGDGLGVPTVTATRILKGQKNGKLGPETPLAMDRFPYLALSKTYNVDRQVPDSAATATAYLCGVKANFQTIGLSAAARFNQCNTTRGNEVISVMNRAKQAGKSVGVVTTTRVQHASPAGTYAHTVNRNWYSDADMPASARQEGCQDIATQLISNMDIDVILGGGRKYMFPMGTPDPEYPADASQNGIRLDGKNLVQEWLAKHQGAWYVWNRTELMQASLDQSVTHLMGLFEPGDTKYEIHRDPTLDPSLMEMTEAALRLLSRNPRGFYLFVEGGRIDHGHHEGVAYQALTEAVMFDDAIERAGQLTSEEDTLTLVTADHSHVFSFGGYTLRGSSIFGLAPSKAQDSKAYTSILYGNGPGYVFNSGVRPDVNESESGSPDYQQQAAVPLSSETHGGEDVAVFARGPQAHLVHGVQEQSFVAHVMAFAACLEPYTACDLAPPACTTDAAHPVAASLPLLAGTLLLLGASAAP
# T3 sequence (P41145 whole entry): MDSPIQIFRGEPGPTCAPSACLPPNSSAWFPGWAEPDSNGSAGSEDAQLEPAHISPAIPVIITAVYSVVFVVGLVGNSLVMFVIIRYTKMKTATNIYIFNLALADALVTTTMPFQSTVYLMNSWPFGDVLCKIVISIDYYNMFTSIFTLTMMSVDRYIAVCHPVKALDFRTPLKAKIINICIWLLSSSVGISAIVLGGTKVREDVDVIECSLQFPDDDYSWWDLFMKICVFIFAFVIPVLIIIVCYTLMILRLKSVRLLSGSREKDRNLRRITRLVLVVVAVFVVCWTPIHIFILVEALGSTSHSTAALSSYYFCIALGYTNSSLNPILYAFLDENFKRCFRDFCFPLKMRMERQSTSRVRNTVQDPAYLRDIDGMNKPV
# T4 sequence (Q9HC97 whole entry): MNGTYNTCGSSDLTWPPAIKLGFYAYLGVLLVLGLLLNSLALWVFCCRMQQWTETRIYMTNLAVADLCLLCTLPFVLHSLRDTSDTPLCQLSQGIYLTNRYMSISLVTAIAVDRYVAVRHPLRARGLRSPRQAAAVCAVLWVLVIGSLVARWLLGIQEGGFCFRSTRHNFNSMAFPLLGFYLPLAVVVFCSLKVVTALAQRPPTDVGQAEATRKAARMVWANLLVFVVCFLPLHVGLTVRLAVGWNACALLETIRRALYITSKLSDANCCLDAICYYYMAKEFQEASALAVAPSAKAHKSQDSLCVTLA
# T5 sequence (P21554 whole entry): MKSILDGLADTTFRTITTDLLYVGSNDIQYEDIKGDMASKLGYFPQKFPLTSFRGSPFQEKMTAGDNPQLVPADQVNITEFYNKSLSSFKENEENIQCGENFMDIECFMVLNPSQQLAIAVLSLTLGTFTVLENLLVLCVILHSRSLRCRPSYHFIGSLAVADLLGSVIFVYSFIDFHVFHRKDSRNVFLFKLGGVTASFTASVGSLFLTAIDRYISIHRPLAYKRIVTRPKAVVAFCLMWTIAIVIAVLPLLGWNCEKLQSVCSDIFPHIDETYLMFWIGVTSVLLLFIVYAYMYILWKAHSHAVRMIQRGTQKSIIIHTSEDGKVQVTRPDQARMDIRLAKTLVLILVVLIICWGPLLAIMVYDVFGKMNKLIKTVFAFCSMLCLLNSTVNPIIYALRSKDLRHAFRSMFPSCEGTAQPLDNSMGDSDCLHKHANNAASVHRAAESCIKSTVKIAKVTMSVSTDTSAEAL
# T6 sequence (P34972 whole entry): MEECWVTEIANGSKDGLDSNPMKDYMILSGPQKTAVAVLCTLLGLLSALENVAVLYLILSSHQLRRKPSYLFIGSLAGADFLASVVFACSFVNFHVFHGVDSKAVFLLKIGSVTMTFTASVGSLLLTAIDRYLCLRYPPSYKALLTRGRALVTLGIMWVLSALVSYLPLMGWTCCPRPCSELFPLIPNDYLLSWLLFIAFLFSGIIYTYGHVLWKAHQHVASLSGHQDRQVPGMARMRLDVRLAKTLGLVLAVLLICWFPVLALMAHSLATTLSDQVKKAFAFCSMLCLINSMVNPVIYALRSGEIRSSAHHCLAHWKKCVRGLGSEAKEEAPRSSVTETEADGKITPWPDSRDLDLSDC
# Sequence of G-protein coupled receptor 55 (Q9Y2T6 whole entry): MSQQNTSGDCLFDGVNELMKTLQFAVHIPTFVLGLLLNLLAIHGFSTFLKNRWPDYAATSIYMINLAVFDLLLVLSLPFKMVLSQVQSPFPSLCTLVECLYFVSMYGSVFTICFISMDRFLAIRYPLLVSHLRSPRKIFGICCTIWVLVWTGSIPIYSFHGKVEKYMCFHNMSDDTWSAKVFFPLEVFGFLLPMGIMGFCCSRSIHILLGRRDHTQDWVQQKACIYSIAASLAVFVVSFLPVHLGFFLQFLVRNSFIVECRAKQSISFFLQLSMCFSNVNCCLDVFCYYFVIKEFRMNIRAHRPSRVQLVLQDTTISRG
# Sequence of Ion channel NompC (Q7T1G6 whole entry): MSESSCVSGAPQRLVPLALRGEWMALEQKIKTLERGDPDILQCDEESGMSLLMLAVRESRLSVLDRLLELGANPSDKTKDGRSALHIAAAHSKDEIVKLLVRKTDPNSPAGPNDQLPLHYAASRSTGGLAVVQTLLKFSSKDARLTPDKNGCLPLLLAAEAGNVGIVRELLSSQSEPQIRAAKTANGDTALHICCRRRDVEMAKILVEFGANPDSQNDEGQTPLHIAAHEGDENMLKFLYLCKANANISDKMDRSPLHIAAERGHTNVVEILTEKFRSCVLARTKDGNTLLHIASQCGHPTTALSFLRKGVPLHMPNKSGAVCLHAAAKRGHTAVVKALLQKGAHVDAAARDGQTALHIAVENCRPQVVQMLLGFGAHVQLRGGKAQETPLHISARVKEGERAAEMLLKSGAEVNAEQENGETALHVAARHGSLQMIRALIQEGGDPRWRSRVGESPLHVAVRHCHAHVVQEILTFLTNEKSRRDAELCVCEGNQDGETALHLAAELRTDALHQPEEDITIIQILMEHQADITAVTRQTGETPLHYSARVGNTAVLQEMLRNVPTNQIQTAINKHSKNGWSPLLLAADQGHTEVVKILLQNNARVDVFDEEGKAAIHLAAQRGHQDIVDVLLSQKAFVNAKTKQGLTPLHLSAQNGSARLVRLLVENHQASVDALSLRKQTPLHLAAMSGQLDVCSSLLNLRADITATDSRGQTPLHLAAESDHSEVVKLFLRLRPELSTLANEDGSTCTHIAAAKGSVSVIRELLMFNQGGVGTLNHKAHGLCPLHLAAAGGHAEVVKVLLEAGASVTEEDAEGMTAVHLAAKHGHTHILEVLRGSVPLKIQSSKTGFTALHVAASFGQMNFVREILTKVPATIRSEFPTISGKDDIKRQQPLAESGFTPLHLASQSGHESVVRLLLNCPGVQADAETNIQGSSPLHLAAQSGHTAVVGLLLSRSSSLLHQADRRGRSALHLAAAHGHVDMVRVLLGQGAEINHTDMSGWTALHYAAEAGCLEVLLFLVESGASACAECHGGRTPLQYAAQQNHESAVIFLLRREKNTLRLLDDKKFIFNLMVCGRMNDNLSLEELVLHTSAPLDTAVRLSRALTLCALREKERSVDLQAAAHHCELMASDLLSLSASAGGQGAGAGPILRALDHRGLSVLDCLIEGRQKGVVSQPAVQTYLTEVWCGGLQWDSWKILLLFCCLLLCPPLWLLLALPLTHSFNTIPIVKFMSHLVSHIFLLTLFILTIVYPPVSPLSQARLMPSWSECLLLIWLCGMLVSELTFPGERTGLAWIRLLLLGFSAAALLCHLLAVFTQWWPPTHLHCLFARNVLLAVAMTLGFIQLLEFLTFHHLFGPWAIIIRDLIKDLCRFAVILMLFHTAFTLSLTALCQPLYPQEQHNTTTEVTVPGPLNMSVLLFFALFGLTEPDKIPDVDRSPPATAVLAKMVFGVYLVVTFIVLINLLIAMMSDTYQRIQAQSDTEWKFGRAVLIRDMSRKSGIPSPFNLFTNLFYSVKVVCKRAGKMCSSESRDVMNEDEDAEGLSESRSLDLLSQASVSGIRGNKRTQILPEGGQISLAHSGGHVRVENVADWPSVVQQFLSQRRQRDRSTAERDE
# Sequence of Mucolipin-3 (Q8TDD5 whole entry): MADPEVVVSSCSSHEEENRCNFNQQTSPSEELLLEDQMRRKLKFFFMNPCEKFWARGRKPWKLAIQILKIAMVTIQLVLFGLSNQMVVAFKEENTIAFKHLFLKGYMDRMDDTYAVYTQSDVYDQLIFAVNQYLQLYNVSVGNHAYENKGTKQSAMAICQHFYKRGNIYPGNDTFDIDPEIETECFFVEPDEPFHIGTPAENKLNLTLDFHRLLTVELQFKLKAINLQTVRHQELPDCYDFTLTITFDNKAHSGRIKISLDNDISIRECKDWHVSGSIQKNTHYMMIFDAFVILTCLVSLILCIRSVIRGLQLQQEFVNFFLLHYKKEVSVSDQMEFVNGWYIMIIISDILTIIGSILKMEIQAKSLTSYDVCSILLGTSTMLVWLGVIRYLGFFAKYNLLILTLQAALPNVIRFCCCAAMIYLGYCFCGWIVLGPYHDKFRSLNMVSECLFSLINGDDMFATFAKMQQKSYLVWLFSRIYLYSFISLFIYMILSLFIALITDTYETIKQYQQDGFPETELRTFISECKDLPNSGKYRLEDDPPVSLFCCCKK
smiles,measurement,setting,value
O=C(Cn1c(-c2ccccc2)c[n+]2ccsc12)c1ccc(Br)cc1,EC50,[1],0.668 µM (active)
CCCN(CCC)CCCNC(=O)CNC(=O)c1nn(-c2ccc(OC)cc2)c(=O)c2ccccc12,EC50,[1],3.76 µM (active)
Cc1c(C(=O)C2=C(O)C(=O)N(CCN3CCOCC3)C2c2cccs2)cnn1-c1ccccc1 (centres undefined),IC50,Coagulation factor XII,> 50 µM (inactive)
COc1cc(NC(=O)c2cc3nc(C4CC4)cc(C(F)(F)F)n3n2)c(OC)cc1Cl,IC50,Coagulation factor XII,> 50 µM (inactive)
CC(C)N(CCNC(=O)c1ccc(CNS(=O)(=O)Cc2ccccc2)cc1)Cc1ccccc1,IC50,[2],10.3 µM (inactive)
same,IC50,[3],3.5 µM (active)
Cc1nc(N2CCN(C(=O)c3ccc4c(c3)nc(C)n4C)CC2)c2c3c(sc2n1)CC(C)CC3 (centres undefined),EC50,[4],> 32 µM (inactive)
same,EC50,Cannabinoid receptor 1 [5],> 32 µM (inactive)
same,IC50,[6],> 32 µM (inactive)
same,IC50,Cannabinoid receptor 1 [7],19.6 µM (inactive)
same,IC50,[8],> 32 µM (inactive)
same,IC50,Cannabinoid receptor 2 [9],> 32 µM (inactive)
same,EC50,Cannabinoid receptor 2 [10],26.8 µM (inactive)
O=C(Cn1c(=O)c2cccn2c2cc(Br)cnc21)NCCCN1CCN(c2ccccc2)CC1,IC50,[2],> 20 µM (inactive)
same,IC50,[3],> 20 µM (inactive)
COc1ccc(C2(C(=O)N3CCC(n4nc(-c5ccccc5)oc4=O)CC3)CC2)cc1,EC50,[4],> 32 µM (inactive)
same,EC50,Cannabinoid receptor 1 [5],> 32 µM (inactive)
same,IC50,[6],> 32 µM (inactive)
same,IC50,Cannabinoid receptor 1 [7],7.11 µM (active)
same,IC50,[8],9.55 µM (active)
same,IC50,Cannabinoid receptor 2 [9],> 32 µM (inactive)
same,EC50,Cannabinoid receptor 2 [10],> 32 µM (inactive)
O=C(O)c1cccc(-c2ccc(/C=N/Nc3ccc([N+](=O)[O-])cc3)o2)c1,IC50,Aminopeptidase N,27.3 µM (active)
same,IC50,[11],> 55.6 µM (not active)
same,EC50,Ion channel NompC,12 µM (inactive)
same,EC50,Mucolipin-3,> 29.9 µM (not active)
same,IC50,Insulin-degrading enzyme,> 55.9 µM (not active)
same,AC50,[12],6.38 µM (active)
O=C(N/N=C/c1cccc([N+](=O)[O-])c1)c1nc(O)c2ccccc2n1,EC50,[13],8.34 µM (active)
